From PMC3395594, “Rational Engineering of Enzyme Allosteric Regulation through Sequence Evolution Analysis” (PLoS Computational Biology, 2012)
Where two headings read alike, the source gives them in different places.

Experiments:
Test in all cases: malachite green phosphate release assay, fit to nonlinear noncompetitive inhibition
Assay type in all cases: biochemical
[1] = target: T1, E. coli FBPase (fructose-1,6-bisphosphatase) (Escherichia coli, UniProt P0A993, K104Q/R132I/Y210F/K218Q); settings: allosteric Glc-6-P site; with respect to FBP; noncompetitive; Mg2+; pH 7.5, 25 C
T1 construct: gene fbp; full-length fbp in pET101/D-TOPO, reverse primer without stop (C-terminal vector tag with polyhistidine, no cleavage told), expressed in E. coli BL21 (DE3), Ni-NTA purified

[2] = target: T2, E. coli FBPase (fructose-1,6-bisphosphatase) (Escherichia coli, UniProt P0A993, Y210F); settings: allosteric Glc-6-P site, with respect to FBP, Mg2+, pH 7.5, 25 C
T2 construct: gene fbp; full-length fbp in pET101/D-TOPO, reverse primer without stop (C-terminal vector tag with polyhistidine, no cleavage told), expressed in E. coli BL21 (DE3), Ni-NTA purified

[3] = target: T3, E. coli FBPase (fructose-1,6-bisphosphatase) (Escherichia coli, UniProt P0A993, Y210F/K218Q); settings: allosteric Glc-6-P site, with respect to FBP, Mg2+, pH 7.5, 25 C
T3 construct: gene fbp; full-length fbp in pET101/D-TOPO, reverse primer without stop (C-terminal vector tag with polyhistidine, no cleavage told), expressed in E. coli BL21 (DE3), Ni-NTA purified

[4] = target: T4, E. coli FBPase (fructose-1,6-bisphosphatase) (Escherichia coli, UniProt P0A993)
T4 construct: gene fbp; full-length fbp in pET101/D-TOPO, reverse primer without stop (C-terminal vector tag with polyhistidine, no cleavage told), expressed in E. coli BL21 (DE3), Ni-NTA purified
T4 sequence (P0A993 1-332): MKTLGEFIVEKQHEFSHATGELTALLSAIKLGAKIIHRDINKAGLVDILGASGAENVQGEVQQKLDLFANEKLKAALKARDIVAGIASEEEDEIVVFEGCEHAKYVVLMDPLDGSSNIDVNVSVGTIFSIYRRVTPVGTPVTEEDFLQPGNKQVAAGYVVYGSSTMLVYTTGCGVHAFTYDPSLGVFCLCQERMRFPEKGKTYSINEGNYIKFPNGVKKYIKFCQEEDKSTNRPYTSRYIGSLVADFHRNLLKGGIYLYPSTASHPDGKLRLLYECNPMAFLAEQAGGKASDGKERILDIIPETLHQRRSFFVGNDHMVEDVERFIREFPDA
Excerpt: malachite green phosphate release assay, fit to nonlinear noncompetitive inhibition on E. coli FBPase (fructose-1,6-bisphosphatase) | Comparison of inhibition constants of wild-type and mutant FBPase by the allosteric inhibitor, AMP. | Comparison of inhibition constant of wild-type and mutant FBPase by the allosteric inhibitor, Glc-6-P.

[5] = target: T5, E. coli FBPase (fructose-1,6-bisphosphatase) (Escherichia coli, UniProt P0A993, K218Q); settings: allosteric Glc-6-P site, with respect to FBP, Mg2+, pH 7.5, 25 C
T5 construct: gene fbp; full-length fbp in pET101/D-TOPO, reverse primer without stop (C-terminal vector tag with polyhistidine, no cleavage told), expressed in E. coli BL21 (DE3), Ni-NTA purified

[6] = target: T6, E. coli FBPase (fructose-1,6-bisphosphatase) (Escherichia coli, UniProt P0A993, K104Q/K218Q/R132I/Y210F)
T6 construct: gene fbp; full-length fbp in pET101/D-TOPO, reverse primer without stop (C-terminal vector tag with polyhistidine, no cleavage told), expressed in E. coli BL21 (DE3), Ni-NTA purified

[7] = target: T7, E. coli FBPase (fructose-1,6-bisphosphatase) (Escherichia coli, UniProt P0A993, K104Q)
T7 construct: gene fbp; full-length fbp in pET101/D-TOPO, reverse primer without stop (C-terminal vector tag with polyhistidine, no cleavage told), expressed in E. coli BL21 (DE3), Ni-NTA purified

[8] = target: T8, E. coli FBPase (fructose-1,6-bisphosphatase) (Escherichia coli, UniProt P0A993, R132I)
T8 construct: gene fbp; full-length fbp in pET101/D-TOPO, reverse primer without stop (C-terminal vector tag with polyhistidine, no cleavage told), expressed in E. coli BL21 (DE3), Ni-NTA purified

[9] = target: T9, E. coli FBPase (fructose-1,6-bisphosphatase) (Escherichia coli, UniProt P0A993, K104Q/R132I)
T9 construct: gene fbp; full-length fbp in pET101/D-TOPO, reverse primer without stop (C-terminal vector tag with polyhistidine, no cleavage told), expressed in E. coli BL21 (DE3), Ni-NTA purified
T9 sequence (P0A993 whole entry K104Q/R132I): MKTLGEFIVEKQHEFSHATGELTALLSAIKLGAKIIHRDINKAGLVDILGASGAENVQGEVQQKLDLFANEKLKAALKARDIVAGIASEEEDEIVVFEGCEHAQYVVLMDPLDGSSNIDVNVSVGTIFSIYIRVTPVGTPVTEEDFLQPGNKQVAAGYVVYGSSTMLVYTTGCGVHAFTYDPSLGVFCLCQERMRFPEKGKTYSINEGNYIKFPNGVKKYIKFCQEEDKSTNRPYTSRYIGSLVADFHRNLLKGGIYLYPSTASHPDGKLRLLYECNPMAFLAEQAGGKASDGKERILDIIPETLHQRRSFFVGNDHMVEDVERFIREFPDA

T2 sequence (P0A993 whole entry Y210F): as the sequence (P0A993 whole entry K104Q/R132I) above, with Q104K, I132R, Y210F counted along it
T6 sequence (P0A993 whole entry K104Q/R132I/Y210F/K218Q): as the sequence (P0A993 whole entry K104Q/R132I) above, with Y210F, K218Q counted along it
T1 sequence (P0A993 whole entry K104Q/R132I/Y210F/K218Q): as the sequence (P0A993 whole entry K104Q/R132I) above, with Y210F, K218Q counted along it
T5 sequence (P0A993 whole entry K218Q): as the sequence (P0A993 whole entry K104Q/R132I) above, with Q104K, I132R, K218Q counted along it
T7 sequence (P0A993 whole entry K104Q): as the sequence (P0A993 whole entry K104Q/R132I) above, with I132R counted along it
T8 sequence (P0A993 whole entry R132I): as the sequence (P0A993 whole entry K104Q/R132I) above, with Q104K counted along it
T3 sequence (P0A993 whole entry Y210F/K218Q): as the sequence (P0A993 whole entry K104Q/R132I) above, with Q104K, I132R, Y210F, K218Q counted along it

SMILES | Ki [1] [µM] | Ki [2] [µM] | Ki [3] [µM] | Ki ([4]; allosteric Glc-6-P site, with respect to FBP, noncompetitive, Mg2+, pH 7.5, 25 C) [µM] | Ki [5] [µM] | Ki [6] [µM] | Ki [7] [µM] | Ki [8] [µM] | Ki [9] [µM] | Ki [4] [µM]
O=P(O)(O)OC[C@H]1OC(O)[C@H](O)[C@@H](O)[C@@H]1O (stereo partly shown) [Glc-6-P] | 21100 ± 2900 | 13100 ± 2900 | 20400 ± 7300 | 800 ± 200 | 14100 ± 3900 |  |  |  |  | 
Nc1ncnc2c1ncn2[C@@H]1O[C@H](COP(=O)(O)O)[C@@H](O)[C@H]1O [AMP] |  |  |  |  |  | 1680 ± 299 | 419 ± 54.1 | 151 ± 12.9 | 1460 ± 215 | 10.1 ± 0.8
